The subject of one assay is CT DNA. As to the kind of experiment: Interaction with CT DNA by UV-vis spectroscopy. The following applies: for percentage of the observed hyper-/hypochromism (ΔA/A0, %) / blue-/red-shift in λmax (Δλ, nm): upon addition of CT DNA; for DNA-binding constant Kb: Wolfe–Shimer equation. Format: binding, calf. The method, then:
UV-vis spectroscopy was employed to determine the interaction mode of the compounds (4′–NO2–fenH and its complexes 1–4) with DNA and calculate the DNA-binding constant (Kb). For this reason, the UV-vis spectra of the compounds (2 × 10^−5–10^−4 Μ) were recorded in the presence of incremental additions of CT DNA solution (Figure S4), and the changes (in absorbance and wavelength) of the initial bands were monitored. […] However, a definite conclusion cannot be reached from such spectroscopic data, but the interaction mode could be further corroborated by viscosity measurements.
The Kb values of the compounds were calculated with the Wolfe–Shimer equation (Equation (S1)) and the corresponding plots of [DNA]/(εA–εF) vs. [DNA] (Figure S5).
S3 Binding studies with CT DNA
In order to study the interaction of the compounds with DNA, the compound was initially dissolved in DMSO (1 mM). Mixing of such solutions with the aqueous buffer solutions of DNA used in the studies never exceeded 5% DMSO (v/v) in the final solution, which was needed due to low aqueous solubility of most compounds. In all experiments, the effect of DMSO on the data has been taken into consideration and the appropriate corrections have been performed. The interaction of the compound with CT DNA was monitored by UV−vis spectroscopy, and viscosity measurements, and via competitive studies with EB by fluorescence emission spectroscopy.
S3.1 Binding study with CT DNA by UV−vis spectroscopy
The interaction of the compound with CT DNA has been studied by UV−vis spectroscopy in order to investigate the possible binding mode to CT DNA and to calculate the DNA−binding constant (Kb). of the compounds Kb (in M−1) was determined with the Wolfe−Shimer equation (equation S1) and the plots [DNA]/(εA−εf) versus [DNA] using the UV−vis spectra of the compound (25–100 μM) recorded for a constant concentration with increasing amounts of CT DNA for diverse [compound]/[DNA] mixing ratios (= r).
According to the Wolfe−Shimer equation:
[DNA] = [DNA] + 1 (equation S1)
(εA−εf) (εb−εf) Kb(εb−εf) where [DNA] is the concentration of DNA in base pairs, εA = Aobsd/[compound], εf = the extinction coefficient for the free compound and εb = the extinction coefficient for the compound in the fully bound form. Kb is given by the ratio of slope to the y intercept in plots [DNA]/(εA−εf) versus [DNA]. […]

The test system of the next assay is EB–DNA adduct (CT DNA). Nature of the assay: EB-displacement (EB–DNA fluorescence quenching). The class given is binding, calf. As to conditions: for relative EB–DNA fluorescence emission intensity (I/Io, %), final: % of the initial EB–DNA fluorescence remaining, λemission 594 nm; for percentage of EB–DNA fluorescence emission quenching (ΔI/I0, %): λexcitation 540 nm, emission 594 nm, buffer pH 7; for quenching constant Kq (EB–DNA): τ0 = 23 ns. The method, then: For the current study, the EB–DNA adduct was prepared in situ after 1-h pretreatment of EB (40 μΜ) and CT DNA (40 μΜ) in buffer solution (sodium chloride 150 mM and sodium citrate 15 mM at pH = 7).
Furthermore, the Stern–Volmer constants (KSV) that represent the ability of the compounds to induce quenching were calculated with the Stern–Volmer equation (Equation (S2)) and the corresponding Stern–Volmer plots […] vs. [Q] (Figure S8). […] The corresponding quenching constants (Kq) were calculated with Equation (S3) using the value of 23 ns as the fluorescence lifetime (τ0) of EB–DNA adduct.
S3.4 EB−displacement studies
The competition of the compounds with EB was investigated by fluorescence emission spectroscopy to examine whether the compounds can displace EB from its DNA−EB adduct. The CT DNA−EB complex was formed by pre−treating 40 μM EB and […] CT DNA in buffer (150 mM NaCl and 15 mM trisodium citrate at pH 7.0). The possible displacement of EB by the compound sand subsequently the intercalating effect was studied by the stepwise addition of a certain amount of the solution of each compound into the solution of the CT DNA−EB adduct. The solutions were excited at 540 nm and the emission was monitored from 550−700 nm with λmax = 592−594 nm and the effect of the addition of the compounds to the CT−DNA EB solution was recorded. […]
fluorescence emission bands at room temperature in solution or in the presence of CT DNA or EB under the same experimental conditions (λexcitation = 540 nm); therefore, the observed quenching of the EB−DNA solution may be attributed to the displacement of EB from its […]
The Stern−Volmer constants (KSV, in M−1) were calculated according to the linear Stern−Volmer equation (equation S2) and the respective plots Io/I versus [compound]:
Io = 1 + K τ [Q] = 1 + K [Q] (equation S2) […]
where Io and I are the emission intensities of the EB−DNA solution in the absence and the presence of the compound, respectively, τo = the average lifetime of the emitting system without the quencher and kq = the quenching constant. Taking τo = 23 ns as the fluorescence lifetime of the EB−DNA adduct, the quenching constant of the compound (Kq, in M−1s−1) was calculated according to equation [6]: […]

Assay [1] addresses T1, human serum albumin (HSA) (Homo sapiens, UniProt P02768).
T1 construct: purchased Sigma-Aldrich Co
Nature of the assay: Competitive albumin-fluorescence studies with warfarin and ibuprofen. Format: binding. As to conditions: for K(HSA, ibuprofen): in the presence of ibuprofen; for K(HSA, warfarin): in the presence of warfarin. An excerpt:
One of the primary functions of SAs is the transport of various compounds such as drugs, fatty acids and hormones. Albumins are composed of three domains, I, II and III, and each of them is subdivided into A and B subdomains that host compounds [90]. […] Site markers like warfarin and ibuprofen are used to identify in which albumin site a compound is bound, as these markers bind selectively to Sudlow’s sites I and II, respectively. The SA-binding site of the compounds was investigated by calculating the SA-binding constant for both HSA and BSA in the presence of ibuprofen or warfarin and comparing them with the values previously derived (in the absence of any marker).
Incremental addition of the compounds into a solution containing the SA (HSA or BSA) and the respective site marker (warfarin or ibuprofen) induced quenching of the initial fluorescence emission band (Figures S19–S22). The SA-binding constants for each compound in the presence of warfarin or ibuprofen were calculated with the Scatchard equation (Equation (S7)) and the corresponding plots (Figures S23–S26) and are compared with those calculated in the absence of any site marker to determine the preferable drug site. […]
From the Scatchard equation:
[Q] = nK − K Io (equation S7) where n is the number of binding sites per albumin and K is the albumin−binding constant (K, in M−1) is calculated from the slope in plots (ΔI/Io)/[compound] versus (ΔI/Io) and n is given by the ratio of y intercept to the slope.
S5.2 Competitive albumin−fluorescence studies with warfarin and ibuprofen The competitive studies with warfarin or ibuprofen (as site−markers) were performed by tryptophan fluorescence quenching experiments using a fixed concentration of the albumin and site markers (3 μM) in buffer (containing 15 mM trisodium citrate and 150 mM NaCl at pH 7.0). The fluorescence emission spectra were recorded in the presence of increasing amounts of the compounds as quenchers with an excitation wavelength of 295 nm. The Scatchard equation (equation S7) and plots were applied on the corrected albumin−fluorescence emission spectra to determine the albumin−binding constant of the compounds in the presence of warfarin or ibuprofen.

Where [2] appears, read: UV band at λmax 391–421 nm, + hyperchromism, − hypochromism.
Setting [3] is: UV band at λmax 391–421 nm, + red-shift, − blue-shift.

T1 sequence (P02768 25-609): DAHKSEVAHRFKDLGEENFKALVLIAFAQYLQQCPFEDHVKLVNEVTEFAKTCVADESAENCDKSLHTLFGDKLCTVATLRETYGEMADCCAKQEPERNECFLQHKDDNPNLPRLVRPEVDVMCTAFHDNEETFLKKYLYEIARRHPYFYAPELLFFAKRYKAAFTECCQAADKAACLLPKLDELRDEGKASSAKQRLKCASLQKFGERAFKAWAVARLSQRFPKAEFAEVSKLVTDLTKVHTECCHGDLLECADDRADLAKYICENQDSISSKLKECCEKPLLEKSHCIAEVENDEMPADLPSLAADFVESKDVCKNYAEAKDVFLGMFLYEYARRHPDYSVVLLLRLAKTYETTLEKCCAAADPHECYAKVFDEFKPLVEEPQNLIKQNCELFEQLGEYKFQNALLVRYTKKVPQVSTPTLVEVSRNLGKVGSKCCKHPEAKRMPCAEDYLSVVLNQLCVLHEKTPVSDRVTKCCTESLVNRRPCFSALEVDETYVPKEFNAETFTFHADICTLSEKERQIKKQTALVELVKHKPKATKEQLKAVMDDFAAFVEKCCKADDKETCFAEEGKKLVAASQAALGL

For `O=C(O)c1ccccc1Nc1ccc([N+](=O)[O-])cc1` [4′–NO2–fenH, 4′–nitrofenamic acid], the “percentage of the observed hyper-/hypochromism (ΔA/A0, %)” value (shortened to “percentage … (ΔA/A0, %)”) in the assay with CT DNA (setting [2]) is −12%. Besides, in the assay with CT DNA (setting [3]), the “blue-/red-shift in λmax (Δλ, nm)” value is reported as “+20 nm”. Further, at CT DNA (listed as 4′–NO2–fenamic acid), the “DNA-binding constant Kb” value came to 1.62e+06 M⁻¹. In the assay with EB–DNA adduct (CT DNA), the “Stern–Volmer constant Ksv (EB–DNA)” value was 5.36 (±0.27) × 10^4 M^−1; the “relative EB–DNA fluorescence emission intensity (I/Io, %), final” value came out at 52.9%; the “percentage of EB–DNA fluorescence emission quenching (ΔI/I0, %)” value (“percentage … (ΔI/I0, %)” below) is on record as 47.1%; the “quenching constant Kq (EB–DNA)” value is 2.33 (±0.11) × 10^12 M^−1s^−1. Besides, in assay [1], the “K(HSA, ibuprofen)” value was 2.91 (±0.06) × 10^5 M^−1 and the “K(HSA, warfarin)” value is reported as 3.22 (±0.12) × 10^5 M^−1.
For the compound `CO.CO.CO.CO.O=C([O-])c1ccccc1Nc1ccc([N+](=O)[O-])cc1.O=C([O-])c1ccccc1Nc1ccc([N+](=O)[O-])cc1.[Co+2]` [Complex 1, [Co(4′–NO2–fen)2(MeOH)4]], in the assay with CT DNA (setting [2]), the “percentage … (ΔA/A0, %)” value is reported as −10%. In addition, the “blue-/red-shift in λmax (Δλ, nm)” value in the assay with CT DNA (setting [3]) worked out at 0 nm. Moreover, in the assay on EB–DNA adduct (CT DNA), the “Stern–Volmer constant Ksv (EB–DNA)” value was 4.99 (±0.14) × 10^4 M^−1; the “relative EB–DNA fluorescence emission intensity (I/Io, %), final” value was 35.4%; the “percentage … (ΔI/I0, %)” value is listed as 64.6%; the “quenching constant Kq (EB–DNA)” value was 2.17 (±0.06) × 10^12 M^−1s^−1. Moreover, in assay [1], the “K(HSA, ibuprofen)” value is given as 1.66 (±0.09) × 10^5 M^−1 and the “K(HSA, warfarin)” value is 1.99 (±0.11) × 10^5 M^−1.
As for `O=C([O-])c1ccccc1Nc1ccc([N+](=O)[O-])cc1.O=C([O-])c1ccccc1Nc1ccc([N+](=O)[O-])cc1.[Co+2].c1ccc(Nc2ccccn2)nc1` [Complex 2, [Co(4′–NO2–fen)2(bipyam)]], in the assay on CT DNA (UV band at λmax 321 nm), the “blue-/red-shift in λmax (Δλ, nm)” value is −0.5 nm and the “percentage … (ΔA/A0, %)” value was “+4%”. Moreover, in the assay with CT DNA (setting [2]), the “percentage … (ΔA/A0, %)” value is on record as −10%. Also, the “blue-/red-shift in λmax (Δλ, nm)” value in the assay on CT DNA (setting [3]) is 0 nm. In addition, in the assay with EB–DNA adduct (CT DNA), the “Stern–Volmer constant Ksv (EB–DNA)” value is recorded as 8.91 (±0.21) × 10^4 M^−1; the “relative EB–DNA fluorescence emission intensity (I/Io, %), final” value was determined as 32.6%; the “percentage … (ΔI/I0, %)” value is 67.3%; the “quenching constant Kq (EB–DNA)” value was 3.88 (±0.09) × 10^12 M^−1s^−1. Further, in assay [1], the “K(HSA, ibuprofen)” value was 2.02 (±0.03) × 10^5 M^−1 and the “K(HSA, warfarin)” value is 2.75 (±0.19) × 10^5 M^−1.
For the compound `O=C([O-])c1ccccc1Nc1ccc([N+](=O)[O-])cc1.O=C([O-])c1ccccc1Nc1ccc([N+](=O)[O-])cc1.[Co+2].c1cnc2c(c1)ccc1cccnc12` [Complex 3, [Co(4′–NO2–fen)2(phen)]], the “percentage … (ΔA/A0, %)” value in the assay on CT DNA (setting [2]) is −2.5%. For the same compound, the “blue-/red-shift in λmax (Δλ, nm)” value in the assay on CT DNA (setting [3]) is reported as “+0.5 nm”. Besides, in the assay on EB–DNA adduct (CT DNA), the “Stern–Volmer constant Ksv (EB–DNA)” value is recorded as 7.39 (±0.21) × 10^4 M^−1; the “relative EB–DNA fluorescence emission intensity (I/Io, %), final” value was determined as 26.3%; the “percentage … (ΔI/I0, %)” value is listed as 73.7%; the “quenching constant Kq (EB–DNA)” value is 3.21 (±0.09) × 10^12 M^−1s^−1. In assay [1], the “K(HSA, ibuprofen)” value was 5.23 (±0.17) × 10^4 M^−1 and the “K(HSA, warfarin)” value is recorded as 4.80 (±0.17) × 10^5 M^−1.
Regarding `C[O-].C[O-].Cc1ccc2ccc3ccc(C)nc3c2n1.Cc1ccc2ccc3ccc(C)nc3c2n1.O=C([O-])c1ccccc1Nc1ccc([N+](=O)[O-])cc1.O=C([O-])c1ccccc1Nc1ccc([N+](=O)[O-])cc1.[Co+2].[Co+2]` [Complex 4, [Co2(4′–NO2–fen)2(μ–CH3O)2(neoc)2]], the “percentage … (ΔA/A0, %)” value in the assay on CT DNA (setting [2]) is −3%. The “blue-/red-shift in λmax (Δλ, nm)” value in the assay with CT DNA (setting [3]) was −4.5 nm. In addition, the “DNA-binding constant Kb” value at CT DNA was found to be 2.06e+06 M⁻¹. Further, in the assay with EB–DNA adduct (CT DNA), the “Stern–Volmer constant Ksv (EB–DNA)” value is 7.78 (±0.24) × 10^4 M^−1; the “relative EB–DNA fluorescence emission intensity (I/Io, %), final” value came to 26.0%; the “percentage … (ΔI/I0, %)” value came to 74.0%; the “quenching constant Kq (EB–DNA)” value was 3.38 (±0.10) × 10^12 M^−1s^−1. Further, in assay [1], the “K(HSA, ibuprofen)” value is 3.04 (±0.15) × 10^5 M^−1 and the “K(HSA, warfarin)” value is listed as 5.00 (±0.18) × 10^5 M^−1.

The values are drawn from PMC12195967, “Cobalt(II) Complexes of 4′–Nitro–Fenamic Acid: Characterization and Biological Evaluation” (Molecules, 2025).
